Laboratory results reported in PubChem BioAssay (NCI).
Several values for one entry are separate records, joined by “and”; a condition that tells them apart may be missing. Identical values can stand only once.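 How tested: cells in 96-well plates exposed to compound for 48 hours at five concentrations. At the GI50, growth is halved. TGI is the concentration that stops growth completely.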

Key:
Experiment in all cases: NCI anticancer screen, dose series, 48 h
SN12C renal = test system: SN12C renal
CCRF-CEM leukemia = test system: CCRF-CEM leukemia
BT-549 breast = test system: BT-549 breast
MALME-3M melanoma = test system: MALME-3M melanoma
HCT-116 colon = test system: HCT-116 colon
SNB-19 CNS = test system: SNB-19 CNS
UO-31 renal = test system: UO-31 renal
DU-145 prostate = test system: DU-145 prostate
SK-OV-3 ovarian = test system: SK-OV-3 ovarian
HCC-2998 colon = test system: HCC-2998 colon

Structure (SMILES)	TGI (SN12C renal)	TGI (CCRF-CEM leukemia)	TGI (BT-549 breast)	TGI (MALME-3M melanoma)	TGI (HCT-116 colon)	TGI (SNB-19 CNS)	TGI (UO-31 renal)	TGI (DU-145 prostate)	TGI (SK-OV-3 ovarian)	GI50 (HCC-2998 colon)	TGI (HCC-2998 colon)	GI50 (SN12C renal)	GI50 (CCRF-CEM leukemia)	GI50 (BT-549 breast)	GI50 (MALME-3M melanoma)	GI50 (HCT-116 colon)	GI50 (SNB-19 CNS)	GI50 (DU-145 prostate)	GI50 (SK-OV-3 ovarian)	GI50 (UO-31 renal)
Cc1c(NC(=O)Nc2c(Cl)cccc2Cl)c(=O)n(-c2ccccc2)n1C	> 100 µM	> 100 µM	> 100 µM	> 100 µM	> 100 µM	> 100 µM	> 100 µM	> 100 µM	> 100 µM	–	–	–	–	–	–	–	–	–	–	–
CC(C)c1[nH]nc2c(NCc3ccc(-c4ccccn4)cc3)nc(SCCN(C)C)nc12	12.3 µM	4.87 µM	0.217 µM	0.642 µM	10.8 µM	12.6 µM	–	12.4 µM	11.5 µM	< 0.0185 µM	0.844 µM	< 0.0199 µM	0.0246 µM	0.0194 µM	0.0986 µM	0.0357 µM	0.0244 µM	0.138 µM	0.106 µM	–
C#CCOc1cccc(Nc2ncnc3cc(NC(=O)C=C)ccc23)c1	> 100 µM	> 100 µM	> 100 µM	> 100 µM	> 100 µM	> 100 µM	75.6 µM	> 100 µM	> 100 µM	11.6 µM	60.4 µM	7.63 µM	4.08 µM	5.3 µM	17.6 µM	4.02 µM	23.8 µM	3.55 µM	7.88 µM	3.51 µM
CC(=O)CCc1ccc(Oc2c3c(nc4ccccc24)OCC3)cc1	–	> 100 µM	> 100 µM	–	> 100 µM	> 100 µM	> 100 µM	> 100 µM	> 100 µM	32.5 µM	91.8 µM	–	> 100 µM	67.5 µM	–	> 100 µM	> 100 µM	> 100 µM	62.1 µM	54.4 µM
CCC[n+]1cc2cc3c(cc2c2c1-c1cc4c(cc1C2)OCO4)OCO3 (tested in a mixture with another compound)	0.777 µM	15 µM	1.82 µM	1.53 µM	11.3 µM	2.18 µM	33.8 µM	7.73 µM	16.4 µM	0.504 µM	2.14 µM	0.0664 µM	2.38 µM	0.312 µM	0.29 µM	0.758 µM	0.269 µM	1.27 µM	3.57 µM	3.14 µM
O=c1cc(-c2ccccc2)oc2cc(OCCCCCN3CCOCC3)cc(O)c12	> 100 µM	> 100 µM	> 100 µM	–	64.8 µM	71.6 µM	> 100 µM	> 100 µM	44.1 µM	–	8.38 µM	> 100 µM	94.5 µM	77.5 µM	–	19.2 µM	23.9 µM	> 100 µM	16.4 µM	32.7 µM
CCn1cc(C(=O)N/N=C/c2cccs2)c(=O)c2cc(F)c(N3CCNC(C)C3)c(F)c21 (centres undefined)	2.88 µM	–	36.9 µM	–	–	2.96 µM	2.96 µM	3.03 µM	3.38 µM	1.8 µM	3.44 µM	1.55 µM	–	12.3 µM	–	–	1.61 µM	1.67 µM	1.79 µM	1.52 µM
C=CCC(N[C@H](CO)c1ccccc1)c1ccccn1 (some centres undefined)	> 100 µM	> 100 µM	> 100 µM	> 100 µM	> 100 µM	–	> 100 µM	> 100 µM	> 100 µM	> 100 µM	> 100 µM	> 100 µM	> 100 µM	> 100 µM	> 100 µM	> 100 µM	–	> 100 µM	> 100 µM	> 100 µM
CNCC(=O)NC(CO)C(=O)NC(CO)C(=O)NC1C(C(N)=O)OC(n2ccc(N)nc2=O)C(O)C1O (centres undefined)	> 50 µg/mL	> 50 µg/mL	25.3 µg/mL	7.58 µg/mL	40.3 µg/mL	45.1 µg/mL	> 50 µg/mL	> 50 µg/mL	41.7 µg/mL	20.6 µg/mL	> 50 µg/mL	9.89 µg/mL	> 50 µg/mL	7.25 µg/mL	0.225 µg/mL	4.68 µg/mL	6.5 µg/mL	13 µg/mL	7.66 µg/mL	12.4 µg/mL
Cn1c2c(c3ccccc3c1=O)C(=O)c1ccccc1-2	> 100 µM	> 100 µM	> 100 µM	> 100 µM	> 100 µM	> 100 µM	> 100 µM	> 100 µM	> 100 µM	–	–	–	–	–	–	–	–	–	–	–
COc1cc(C2c3cc4c(cc3[C@@H](Nc3ccc([N+](=O)[O-])cc3)C3COC(=O)[C@H]23)OCO4)cc(OC)c1O (some centres undefined)	7.96 µM	0.967 µM and 8.1 µM	6.39 µM	10.5 µM	14.2 µM	25.8 µM	8.76 µM	37.9 µM	10.1 µM	–	7.01 µM	0.486 µM	0.226 µM	–	0.943 µM	–	0.481 µM	–	0.798 µM	0.753 µM
OC(CN1CCCC2CCCCC21)c1cc2ccccc2c2ccccc12 (centres undefined)	13.4 µM	5.2 µM	4.06 µM	3.45 µM	2.56 µM	15.1 µM	7.41 µM	14 µM	10.8 µM	1.78 µM	3.9 µM	3.38 µM	1.87 µM	1.54 µM	1.53 µM	1.29 µM	3.52 µM	3.73 µM	3.16 µM	1.44 µM
COc1cccc(N2CCN(c3ncnc4cc[nH]c34)CC2)c1	> 100 µM	> 100 µM	26.8 µM	55.3 µM	> 100 µM	> 100 µM	> 100 µM	> 100 µM	> 100 µM	7.19 µM	> 100 µM	32.6 µM	9.61 µM	2.66 µM	10 µM	3.67 µM	> 100 µM	43.2 µM	51.5 µM	7.37 µM
NC(Cc1cccnn1)C(=O)O (centres undefined)	> 100 µM	> 100 µM	> 100 µM	> 100 µM	> 100 µM	> 100 µM	> 100 µM	> 100 µM	> 100 µM	–	> 100 µM	–	–	–	–	–	–	–	–	–
O=C1C(Cl)=C(Nc2cc(Cl)ccc2O)C(=O)N1Cc1ccccc1	34.4 µM	54.9 µM	44.3 µM	37.5 µM	35.6 µM	> 61.2 µM	> 54.6 µM	33.5 µM	43.3 µM	–	–	19.5 µM	12.5 µM	20.5 µM	20.7 µM	19.4 µM	25.4 µM	18 µM	19.7 µM	32.7 µM
C[C@H]1COCCN1c1nc(-c2cnc(N)cc2C(F)F)nc(N2CCOCC2)n1	> 100 µM	> 50.3 µM	0.818 µM	0.721 µM	> 100 µM	13.8 µM	> 100 µM	> 100 µM	0.412 µM	0.186 µM	15.1 µM	0.159 µM	0.285 µM	0.098 µM	0.104 µM	0.233 µM	0.3 µM	0.285 µM	0.0614 µM	0.047 µM
CC1=CC(C)(C)Nc2ccc(Cc3ccc4c(c3)C(C)=CC(C)(C)N4)cc21	> 100 µM	59.6 µM	> 100 µM	42 µM	43.9 µM	> 100 µM	65.8 µM	76.1 µM	97.1 µM	20.6 µM	> 100 µM	11.2 µM	4.67 µM	28.4 µM	11.8 µM	8.69 µM	17.2 µM	10.1 µM	17.7 µM	7.27 µM
Cc1nc2sc(C(=O)Nc3ccccc3)c(N)c2cc1C(O)c1ccccc1 (centres undefined)	> 100 µM	–	24.1 µM	34.3 µM	12.8 µM	> 100 µM	> 60.9 µM	20.9 µM	38.5 µM	0.329 µM	6.27 µM	0.46 µM	0.234 µM	0.409 µM	0.6 µM	0.255 µM	0.446 µM	0.362 µM	0.523 µM	0.727 µM
Cc1c(Cl)cccc1NC(=O)c1sc2nc3c(cc2c1N)C(=O)CCC3	> 100 µM	> 100 µM	> 100 µM	> 100 µM	> 100 µM	> 100 µM	> 91.5 µM	47.3 µM	> 89.7 µM	0.201 µM	> 60 µM	0.124 µM	0.108 µM	0.169 µM	0.0363 µM	0.0644 µM	0.0698 µM	0.124 µM	0.0597 µM	0.0682 µM
C[C@@H](CS[As](C)C)C(=O)N1CCC[C@H]1C(=O)O	1.03 µM	0.643 µM	2.31 µM	1.15 µM	> 100 µM	31.2 µM	0.8 µM	1.68 µM	14.6 µM	–	–	0.2 µM	0.142 µM	0.487 µM	0.164 µM	0.167 µM	3.76 µM	0.19 µM	0.625 µM	0.0923 µM
CC(=O)c1ccc2c3c1[C@H]1O[C@H]1c1cccc(c1-3)[C@@H]1O[C@H]21	3.86 µM	4.2 µM	4.53 µM	3.07 µM	3.87 µM	13.1 µM	3.41 µM	7.19 µM	16 µM	–	–	–	–	–	–	–	–	–	–	–
CC(=O)O[C@@H]1C2=C(C)C3(CC3)[C@@](C)(O)C(=O)C2=C[C@@]1(C)CO	13.9 µM	> 22.5 µM	2.79 µM	2.5 µM	> 100 µM	9.6 µM	–	3.14 µM	8.01 µM	0.496 µM	1.89 µM	1.86 µM	0.475 µM	0.509 µM	0.893 µM	0.424 µM	1.08 µM	0.342 µM	1.55 µM	–
C=C(C)C1CCC2=CC(CC3(C)OC3C3=CC(C(=O)OC)=C(C1)O3)OC2=O (centres undefined)	> 100 µM	> 100 µM	> 100 µM	> 100 µM	> 100 µM	> 100 µM	> 100 µM	> 100 µM	–	–	–	–	–	–	–	–	–	–	–	–
COc1ccc2c(CCCc3ccc(Cl)cc3Cl)c3[n+](cc2c1OC)CCc1cc2c(cc1-3)OCO2	–	–	1.4 µM	–	–	–	3.08 µM	1.96 µM	2.2 µM	0.638 µM	1.95 µM	–	–	0.365 µM	–	–	–	0.639 µM	0.873 µM	1.58 µM
C(=C\c1ccncc1)/c1ccncc1	> 100 µM	> 100 µM	> 100 µM	> 100 µM	> 100 µM	> 100 µM	> 100 µM	> 100 µM	> 100 µM	–	–	> 100 µM	> 100 µM	> 100 µM	> 100 µM	> 100 µM	> 100 µM	> 100 µM	> 100 µM	50.5 µM
Cc1ccc(-c2c3c(nn2-c2ccc(S(=O)(=O)NC(=O)NC4CCCCC4)cc2)-c2ccccc2C3)cc1	35.6 µM	–	26.5 µM	–	15.9 µM	49.7 µM	2.64 µM	28.7 µM	42.4 µM	–	–	19.4 µM	–	11.4 µM	–	3.3 µM	20.1 µM	14.3 µM	18.9 µM	1.33 µM
COc1cc2c3c(n([C@@H]4CCOC4)c(=O)c2cc1OC)-c1cc2c(cc1C3=O)OCO2	> 100 µM	> 100 µM	> 100 µM	–	–	> 100 µM	> 100 µM	> 100 µM	–	–	–	< 0.01 µM	< 0.01 µM	0.0218 µM	–	–	< 0.01 µM	< 0.01 µM	–	< 0.01 µM
C=C1C(=O)O[C@H]2[C@H]1CC/C(COC(=O)CCCCCCCC(=O)OC/C1=C/CC[C@@]3(C)O[C@H]3[C@H]3OC(=O)C(=C)[C@@H]3CC1)=C\CC[C@@]1(C)O[C@@H]21	9.33 µM	7.49 µM	3.45 µM	5.3 µM	–	19.2 µM	3.79 µM	10.8 µM	34.3 µM	1.9 µM	3.88 µM	2.75 µM	0.476 µM	1.59 µM	2.17 µM	–	4.85 µM	2.9 µM	13.1 µM	1.5 µM
